According to article PMC5546207 (Cancer discovery, 2017):
Read-outs that look alike come from different tables or passages of the source.

How the values were obtained:
[1] = tested on: patients; settings: cited from earlier work; for incidence of hyperglycemia: single agent
[2] = Plasma pharmacokinetics; assay type: in vivo, human; settings: for AUC / Cmax / Tmax: human, plasma, oral; for AUC: AUCtau [mean ± standard deviation]; for Cmax: Cmax [mean ± standard deviation]; for Tmax: Tmax [median (range)]
[3] = 300 mg alpelisib at steady state, triple combination
[4] = 200 mg encorafenib at steady state, dual combination
[5] = 200 mg encorafenib in the presence of 300 mg alpelisib, steady state, triple combination

Row | AUC [2, 3] | Cmax [2, 3] | exposure affected by encorafenib and cetuximab ([2]; triple-combination therapy group) | SMILES | incidence of hyperglycemia ([1]; all grade, patients with solid tumors) | incidence of hyperglycemia ([1]; grade 3/4, patients with solid tumors) | single agent MTD/RP2D ([1]; first-in-human study) | exposure vs dual-combination therapy group ([2]; 200 mg encorafenib in the presence of 100 mg alpelisib) | drug–drug interaction between encorafenib and cetuximab ([2]; dual-combination therapy group) | AUC [2, 4] | AUC [2, 5] | Cmax [2, 4] | Cmax [2, 5] | Tmax [2, 4] | Tmax [2, 5]
1 | 25100 ng·h/mL | 2740 ± 520 ng/mL | not affected | Cc1nc(NC(=O)N2CCC[C@H]2C(N)=O)sc1-c1ccnc(C(C)(C)C(F)(F)F)c1 [alpelisib] | 47% | 24% | – | – | – | – | – | – | – | – | –
2 | – | – | – | COC(=O)N[C@@H](C)CNc1nccc(-c2cn(C(C)C)nc2-c2cc(Cl)cc(NS(C)(=O)=O)c2F)n1 [encorafenib] | – | – | 450 mg | similar | No evidence of drug–drug interaction | 7170 ± 2890 ng·h/mL | 12900 ng·h/mL | 1430 ± 824 ng/mL | 2390 ± 2080 ng/mL | 2 h | 3 h
